Reference: patent US9179694B2, “Method and composition for enhancing milk production and milk component concentrations” (PURINA ANIMAL NUTRITION LLC, priority 2003, dated 2015)
Marks after values point to notes of the source that are not given here.

Assay: True protein content of produced milk in sorbitol feeding trials
Type: in vivo, Holstein cows
Settings: for True Protein in Produced Milk: Pre-Partum Trial #1 (75/0/0 g/day in wk −3..−1/+1..+4/+5..+8)
Protocol: To determine the percent of total protein, wet basis, in a sample, the actual weight of total protein is determined in accordance with Method #991.20 (33.2.11) of Official Methods of Analysis, Association of Official Analytical Chemists (AOAC) (16th Ed., 1995). The value determined by the above method yields “total Kjeldahl nitrogen,” which is equivalent to “total protein” since the above method incorporates a factor that accounts for the average amount of nitrogen in protein. Since any and all total Kjeldahl nitrogen determinations presented herein are based on the above method, the terms “total Kjeldahl nitrogen” and “total protein” are used interchangeably herein. Furthermore, those skilled in the art will recognize that the term “total Kjeldahl nitrogen” is generally used in the art to mean “total protein” with the understanding that the factor has been applied. The weight percent total protein, wet basis, is calculated by dividing the actual weight of total protein by the actual weight of the sample. The weight percent of true protein, wet basis, for a particular sample is calculated after first determining the wet basis weight percent of total Kjeldahl nitrogen and the wet basis weight percent of non-protein nitrogen in the sample. The wet basis weight percent of total Kjeldahl nitrogen in the sample is determined using the method referenced above. The wet basis weight percent of non-protein nitrogen (NPN) in the sample is determined in accordance with Method #991.21 (33.2.12) of Official Methods of Analysis, Association of Official Analytical Chemists (AOAC) (16th Ed., 1995). The weight percent of true protein, wet basis, in the sample is then determined by subtracting the wet basis weight percent of non-protein nitrogen in the sample from the wet basis weight percent of total Kjeldahl nitrogen in the sample. Each cow of each of the six different trials (Control Trial #1, Control Trial #2, Pre-Partum Trial #1, Pre-Partum Trial #2, Pre/Post Trial #1, and Pre/Post Trial #2) was milked three times daily and the weight of produced milk by each cow was recorded at each milking. The milk from each cow was sampled once per week (⅓ of the sample volume from each of the three milkings occurring on the weekly milk sampling day) and was analyzed for true protein, total fat, lactose, and total solids, as detailed in the property determination and characterization techniques presented above. Additionally, samples of blood were periodically obtained from each cow during the four trials (Control Trial 2, Pre-Partum Trial #2, Pre/Post Trial #1, and Pre/Post Trial #2) encompassed in Example Two and were analyzed for non-esterified fatty acid (NEFA) content as detailed in the property determination and characterization techniques presented above. No NEFA analysis was conducted on the cows employed in Control Trial #1 or Pre-Partum Trial #1 that are the subject of Example One. Example One includes Control Trial #1 and Pre-Partum Trial #1. Both primiparious cows and multiparious cows were included in Control Trial #1 and Pre-Partum Trial #1. Five primiparious cows and fifteen multiparious cows were included in Control Trial #1; likewise, five primiparious cows and fifteen multiparious cows were included in Pre-Partum Trial #1. All cows included in Control Trial #1 and Pre-Partum Trial #1 were Holsteins. Example Two includes Control Trial #2, Pre-Partum Trial #2, Pre/Post Trial #1, and Pre/Post Trial #2. Only multiparious, Holstein cows were included in Control Trial #2, Pre-Partum Trial #1, Pre/Post Trial #1, and Pre/Post Trial #2. Eighteen multiparious cows were included in both Control Trial #2 and Pre-Partum Trial #2, while sixteen multiparious cows were included in Pre/Post Trial #1 and seventeen multiparious cows were included in Pre/Post Trial #2.

## OC[C@@H](O)[C@@H](O)[C@H](O)[C@@H](O)CO [sorbitol]
Multiparious cows, weeks +1 through +8
  True Protein in Produced Milk: 2.82 wt %
Primiparious cows, weeks +1 through +8
  True Protein in Produced Milk: 2.9 wt %
Pre-Partum Trial #1 (75 g/day wk −3..−1 only) versus Control Trial #1, primiparious cows, weeks +1 through +8
  increase in true protein concentration in the produced milk: 7.4%
Pre-Partum Trial #2 (75/0/100 g/day in wk −3..−1/+1..+4/+5..+8), multiparious cows, week +1
  True Protein Content of Produced Milk: 3.95 weight %
Pre-Partum Trial #2 (75/0/100 g/day in wk −3..−1/+1..+4/+5..+8), multiparious cows, week +2
  True Protein Content of Produced Milk: 3.14 weight %
Pre-Partum Trial #2 (75/0/100 g/day in wk −3..−1/+1..+4/+5..+8), multiparious cows, week +3
  True Protein Content of Produced Milk: 2.81 weight %
Pre-Partum Trial #2 (75/0/100 g/day in wk −3..−1/+1..+4/+5..+8), multiparious cows, week +4
  True Protein Content of Produced Milk: 2.71^ab weight %
Pre-Partum Trial #2 (75/0/100 g/day in wk −3..−1/+1..+4/+5..+8), multiparious cows, week +5
  True Protein Content of Produced Milk: 2.63 weight %
Pre-Partum Trial #2 (75/0/100 g/day in wk −3..−1/+1..+4/+5..+8), multiparious cows, week +6
  True Protein Content of Produced Milk: 2.62 weight %
Pre-Partum Trial #2 (75/0/100 g/day in wk −3..−1/+1..+4/+5..+8), multiparious cows, week +7
  True Protein Content of Produced Milk: 2.60 weight %
Pre-Partum Trial #2 (75/0/100 g/day in wk −3..−1/+1..+4/+5..+8), multiparious cows, week +8
  True Protein Content of Produced Milk: 2.56 weight %
Pre-Partum Trial #2 (75/0/100 g/day in wk −3..−1/+1..+4/+5..+8), multiparious cows, weeks +1 through +4
  True Protein Content of Produced Milk: 3.11 weight %
Pre-Partum Trial #2 (75/0/100 g/day in wk −3..−1/+1..+4/+5..+8), multiparious cows, weeks +1 through +8
  True Protein Content of Produced Milk: 2.86 weight %
Pre-Partum Trial #2 (75/0/100 g/day in wk −3..−1/+1..+4/+5..+8), multiparious cows, weeks +5 through +8
  True Protein Content of Produced Milk: 2.60 weight %
Pre/Post Trial #1 (150/125/100 g/day in wk −3..−1/+1..+4/+5..+8), multiparious cows, week +1
  True Protein Content of Produced Milk: 4.01 weight %
Pre/Post Trial #1 (150/125/100 g/day in wk −3..−1/+1..+4/+5..+8), multiparious cows, week +1, two-trial comparison with Control Trial #2 (Table 24)
  True Protein Content of Produced Milk: 4.01 weight %
Pre/Post Trial #1 (150/125/100 g/day in wk −3..−1/+1..+4/+5..+8), multiparious cows, week +2
  True Protein Content of Produced Milk: 3.17 weight %
Pre/Post Trial #1 (150/125/100 g/day in wk −3..−1/+1..+4/+5..+8), multiparious cows, week +2, two-trial comparison with Control Trial #2 (Table 24)
  True Protein Content of Produced Milk: 3.17 weight %
Pre/Post Trial #1 (150/125/100 g/day in wk −3..−1/+1..+4/+5..+8), multiparious cows, week +3
  True Protein Content of Produced Milk: 2.85 weight %
Pre/Post Trial #1 (150/125/100 g/day in wk −3..−1/+1..+4/+5..+8), multiparious cows, week +3, two-trial comparison with Control Trial #2 (Table 24)
  True Protein Content of Produced Milk: 2.85 weight %
Pre/Post Trial #1 (150/125/100 g/day in wk −3..−1/+1..+4/+5..+8), multiparious cows, week +4
  True Protein Content of Produced Milk: 2.73^ab weight %
Pre/Post Trial #1 (150/125/100 g/day in wk −3..−1/+1..+4/+5..+8), multiparious cows, week +4, two-trial comparison with Control Trial #2 (Table 24)
  True Protein Content of Produced Milk: 2.73 weight %
Pre/Post Trial #1 (150/125/100 g/day in wk −3..−1/+1..+4/+5..+8), multiparious cows, week +5
  True Protein Content of Produced Milk: 2.65 weight %
Pre/Post Trial #1 (150/125/100 g/day in wk −3..−1/+1..+4/+5..+8), multiparious cows, week +5, two-trial comparison with Control Trial #2 (Table 24)
  True Protein Content of Produced Milk: 2.65 weight %
Pre/Post Trial #1 (150/125/100 g/day in wk −3..−1/+1..+4/+5..+8), multiparious cows, week +6
  True Protein Content of Produced Milk: 2.61 weight %
Pre/Post Trial #1 (150/125/100 g/day in wk −3..−1/+1..+4/+5..+8), multiparious cows, week +6, two-trial comparison with Control Trial #2 (Table 24)
  True Protein Content of Produced Milk: 2.61 weight %
Pre/Post Trial #1 (150/125/100 g/day in wk −3..−1/+1..+4/+5..+8), multiparious cows, week +7
  True Protein Content of Produced Milk: 2.57 weight %
Pre/Post Trial #1 (150/125/100 g/day in wk −3..−1/+1..+4/+5..+8), multiparious cows, week +7, two-trial comparison with Control Trial #2 (Table 24)
  True Protein Content of Produced Milk: 2.57 weight %
Pre/Post Trial #1 (150/125/100 g/day in wk −3..−1/+1..+4/+5..+8), multiparious cows, week +8
  True Protein Content of Produced Milk: 2.65 weight %
Pre/Post Trial #1 (150/125/100 g/day in wk −3..−1/+1..+4/+5..+8), multiparious cows, week +8, two-trial comparison with Control Trial #2 (Table 24)
  True Protein Content of Produced Milk: 2.65 weight %
Pre/Post Trial #1 (150/125/100 g/day in wk −3..−1/+1..+4/+5..+8), multiparious cows, weeks +1 through +4
  True Protein Content of Produced Milk: 3.18 weight %
Pre/Post Trial #1 (150/125/100 g/day in wk −3..−1/+1..+4/+5..+8), multiparious cows, weeks +1 through +4, two-trial comparison with Control Trial #2 (Table 24)
  True Protein Content of Produced Milk: 3.18 weight %
Pre/Post Trial #1 (150/125/100 g/day in wk −3..−1/+1..+4/+5..+8), multiparious cows, weeks +1 through +8
  True Protein Content of Produced Milk: 2.90 weight %
Pre/Post Trial #1 (150/125/100 g/day in wk −3..−1/+1..+4/+5..+8), multiparious cows, weeks +1 through +8, two-trial comparison with Control Trial #2 (Table 24)
  True Protein Content of Produced Milk: 2.90 weight %
Pre/Post Trial #1 (150/125/100 g/day in wk −3..−1/+1..+4/+5..+8), multiparious cows, weeks +5 through +8
  True Protein Content of Produced Milk: 2.62 weight %
Pre/Post Trial #1 (150/125/100 g/day in wk −3..−1/+1..+4/+5..+8), multiparious cows, weeks +5 through +8, two-trial comparison with Control Trial #2 (Table 24)
  True Protein Content of Produced Milk: 2.62 weight %
Pre/Post Trial #1 (150/125/100 g/day) versus Control Trial #2, multiparious cows, weeks +1 through +4 (Table 24)
  increase in true protein concentration in milk: 4.6%
Pre/Post Trial #1 (150/125/100 g/day) versus Control Trial #2, multiparious cows, weeks +1 through +8 (Table 24)
  increase in true protein concentration in milk: 2.8%
Pre/Post Trial #2 (75/75/100 g/day in wk −3..−1/+1..+4/+5..+8), multiparious cows, week +1
  True Protein Content of Produced Milk: 3.96 weight %
Pre/Post Trial #2 (75/75/100 g/day in wk −3..−1/+1..+4/+5..+8), multiparious cows, week +2
  True Protein Content of Produced Milk: 3.13 weight %
Pre/Post Trial #2 (75/75/100 g/day in wk −3..−1/+1..+4/+5..+8), multiparious cows, week +3
  True Protein Content of Produced Milk: 2.89 weight %
Pre/Post Trial #2 (75/75/100 g/day in wk −3..−1/+1..+4/+5..+8), multiparious cows, week +4
  True Protein Content of Produced Milk: 2.77^b weight %
Pre/Post Trial #2 (75/75/100 g/day in wk −3..−1/+1..+4/+5..+8), multiparious cows, week +5
  True Protein Content of Produced Milk: 2.70 weight %
Pre/Post Trial #2 (75/75/100 g/day in wk −3..−1/+1..+4/+5..+8), multiparious cows, week +6
  True Protein Content of Produced Milk: 2.69 weight %
Pre/Post Trial #2 (75/75/100 g/day in wk −3..−1/+1..+4/+5..+8), multiparious cows, week +7
  True Protein Content of Produced Milk: 2.64 weight %
Pre/Post Trial #2 (75/75/100 g/day in wk −3..−1/+1..+4/+5..+8), multiparious cows, week +8
  True Protein Content of Produced Milk: 2.61 weight %
Pre/Post Trial #2 (75/75/100 g/day in wk −3..−1/+1..+4/+5..+8), multiparious cows, weeks +1 through +4
  True Protein Content of Produced Milk: 3.18 weight %
Pre/Post Trial #2 (75/75/100 g/day in wk −3..−1/+1..+4/+5..+8), multiparious cows, weeks +1 through +8
  True Protein Content of Produced Milk: 2.91 weight %
Pre/Post Trial #2 (75/75/100 g/day in wk −3..−1/+1..+4/+5..+8), multiparious cows, weeks +5 through +8
  True Protein Content of Produced Milk: 2.66 weight %
Average of means of Pre-Partum Trial #2, Pre/Post Trial #1 and Pre/Post Trial #2 versus Control Trial #2, multiparious cows, weeks +1 through +4
  increase in true protein concentration in milk: 3.8%
Average of means of Pre-Partum Trial #2, Pre/Post Trial #1 and Pre/Post Trial #2 versus Control Trial #2, multiparious cows, weeks +1 through +8
  increase in true protein concentration in milk: 2.5%
